How the values were obtained:
[1] = tested on: P12-Ichikawa; assay: AUC of viability dose-response curve (% viability x log10 dose units); higher = less sensitive; details: 48 h
Procedure, shortened: (§1)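 Area under the curve was integrated by trapezoidal rule from a log-logistic fit of normalised viability, with curves exceeding full viability scaled and quality-control failures removed. The fit had four parameters over log10 doses. Viability came from CellTiter-Glo One luminescence, normalised per plate to DMSO and cell-free wells, after leukemia cells adapted to each medium (500 or 1000 cells/well, 1536-well plates) were exposed to library compounds in DMSO for 48 h at 37°C. The 11 threefold doses ran from 47 μM to 0.79 nM.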

[2] = tested on: NOMO1; assay: as above; details: 48 h
Procedure, shortened: as §1

[3] = tested on: SEM cells; assay: as above; details: 48 h
Procedure, shortened: as §1

[4] = tested on: P12-Ichikawa; assay: cell viability relative to DMSO control; higher = less cytotoxic; details: 48 h
Procedure, shortened: (§2)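 NOMO1 or SEM cells were plated at 500 cells/well and P12-Ichikawa cells at 1000 cells/well in 1536-well plates (5 μl), after each leukemia line had been adapted for at least four passages in each medium. Pin dosing delivered library compounds in DMSO at 11 threefold concentrations, 47 μM to 0.79 nM. CellTiter-Glo One luminescence was read after 48 h at 37°C. Viability is reported as a per-plate percentage of DMSO wells, with cell-free wells as background.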

[5] = tested on: NOMO1; assay: as above; details: 48 h
Procedure, shortened: as §2

[6] = tested on: SEM cells; assay: as above; details: HPLM + 10% dialyzed FBS, 48 h
Procedure, shortened: as §2

CCC1(c2ccc(N)cc2)CCC(=O)NC1=O (stereo unspecified)
Details	AUC of viability dose-response curve	cell viability [%]
[1], HPLM + 10% dialyzed FBS	449	–
[1], RPMI 5 mM glucose + 10% FBS	427	–
[1], RPMI 5 mM glucose + 10% dialyzed FBS	434	–
[2], HPLM + 10% dialyzed FBS	463	–
[2], RPMI 5 mM glucose + 10% FBS	473	–
[2], RPMI 5 mM glucose + 10% dialyzed FBS	465	–
[3], HPLM + 10% dialyzed FBS	433	–
[3], RPMI 5 mM glucose + 10% FBS	424	–
[3], RPMI 5 mM glucose + 10% dialyzed FBS	401	–
[6], 0.000781 µM	–	114
[6], 0.00234 µM	–	113
[6], 0.00702 µM	–	127
[6], 0.0211 µM	–	114
[6], 0.0632 µM	–	118
[6], 0.19 µM	–	114
[6], 0.569 µM	–	107
[6], 1.71 µM	–	55.3
[6], 5.12 µM	–	108
[6], 15.4 µM	–	95.1
[6], 46.1 µM	–	96.6

cell viability [%]
Details	HPLM + 10% dialyzed FBS	RPMI 5 mM glucose + 10% FBS	RPMI 5 mM glucose + 10% dialyzed FBS
[4], 0.000781 µM	116	125	115
[4], 0.00234 µM	113	120	116
[4], 0.00702 µM	109	120	114
[4], 0.0211 µM	111	111	116
[4], 0.0632 µM	121	110	109
[4], 0.19 µM	110	115	108
[4], 0.569 µM	109	114	104
[4], 1.71 µM	98.2	98.9	96.4
[4], 5.12 µM	101	102	93.6
[4], 15.4 µM	96.7	109	97.9
[4], 46.1 µM	91.7	106	88
[5], 0.000781 µM	115	106	114
[5], 0.00234 µM	107	107	111
[5], 0.00702 µM	125	116	116
[5], 0.0211 µM	124	116	117
[5], 0.0632 µM	122	102	118
[5], 0.19 µM	119	117	104
[5], 0.569 µM	115	103	107
[5], 1.71 µM	110	104	123
[5], 5.12 µM	116	123	102
[5], 15.4 µM	93.9	110	111
[5], 46.1 µM	97.6	99.7	111
